Target: T1, human CYP17 in LNCap-CYP17 cells (Homo sapiens, UniProt P05093)
T1 construct: expressed in transfected cells
T1 sequence (P05093 1-508): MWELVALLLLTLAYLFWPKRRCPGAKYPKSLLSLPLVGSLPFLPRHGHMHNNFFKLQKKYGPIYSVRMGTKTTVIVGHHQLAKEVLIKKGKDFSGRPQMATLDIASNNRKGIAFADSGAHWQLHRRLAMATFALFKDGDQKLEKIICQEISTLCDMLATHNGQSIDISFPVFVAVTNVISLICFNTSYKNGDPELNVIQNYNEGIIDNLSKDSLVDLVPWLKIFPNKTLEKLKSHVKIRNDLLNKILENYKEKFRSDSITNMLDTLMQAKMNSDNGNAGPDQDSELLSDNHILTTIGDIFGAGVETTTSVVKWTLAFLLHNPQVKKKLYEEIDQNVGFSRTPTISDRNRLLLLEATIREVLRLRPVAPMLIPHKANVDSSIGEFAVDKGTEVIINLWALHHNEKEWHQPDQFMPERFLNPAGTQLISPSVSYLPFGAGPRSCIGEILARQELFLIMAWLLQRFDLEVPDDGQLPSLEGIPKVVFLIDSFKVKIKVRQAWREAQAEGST
Assay: Cell-based human CYP17 inhibition assay, LNCap-CYP17 cells
Conditions: 16 hours
Description: Cell-Based Human CYP17 Inhibition Assay
1. H295R Adrenocortical Carcinoma Cells and Growth Media: The media for the H295R Adrenocortical carcinoma cells [NCI-H295A, ATCC Number CRL-2128, American Type Culture Collection, Manassas, Va., US] (500 mL) was a DMEM:F12 Mix 1:1 with 5% (2 mL) BD Nu Serum; 1% (5 mL) ITS+Premix [BD Biosciences] and 1% Penstrep. 2. LNCap-CYP17 Cells and Growth Media: Full length hCYP17a1 gene (NCBI Reference Sequence: NM_000102.3) was cloned in pcDNA3.1(+) vector between HindIII and XhoI site. The pcDNA3.1(+) vector contains the Neomycin resistance gene and was used for selection of stable cell line. The hCYP17a1 containing pcDNA3.1(+) was transfected into LNCap cells to create the LNCap-CYP17 cell line. The media for the LNCaP-CYP17 cells was RPMI 1640, 10% FBS, 1% PenStrep, Geneticin 400 μg/mL.
The H295R cells or LNCaP-hCYP17 cells were subcultured and 30,000 cells per well were seeded in a poly-d lysine plate and incubated overnight at 37° C. The next day the media was removed and 200 μL of fresh media with ^3H3-17α-hydroxy-pregnenolone (1:1000) was added. 50 μL of serially diluted compounds from a 5× plate (5 times the final desired concentration) was added. […]
The plates were incubated overnight (16 hours) at 37° C. […] Following the incubation for 30 minutes, readings for the radiotracer were taken using a Microbeta® trilux.

SMILES: COc1ccc(-c2ccc(C(C)(O)c3ccncc3)nc2)cc1 (racemic) [Example 1, 1-(5-(4-Methoxyphenyl)pyridin-2-yl)-1-(pyridin-4-yl)ethanol]
- IC50: 0.201 to 10 µM

— patent US8809372B2, “Pyridine derivatives” (Endo Pharmaceuticals, Inc., priority 2011, dated 2014)
